Earlier results as cited in PMC11406440 (Food and chemical toxicology : an international journal …, 2024).
Read-outs that look alike come from different tables or passages of the source.

Legend:
male rats = conditions: 3 and 10 mg/kg/d; ref Butenhoff et al., 2009; cited from earlier work
mice = conditions: dermal exposure; ref Weatherly et al., 2021, 2023; cited from earlier work
[1] = 5% dermal exposure, same conditions; ref Weatherly et al., 2023; cited from earlier work
[2] = 4-day dermal exposure, ref Franko et al., 2012, cited from earlier work
IgM response to SRBC = conditions: cited from earlier work
[3] = ex vivo mouse skin; ref Franko et al., 2012; cited from earlier work
[4] = ref ATSDR, 2021; cited from earlier work
[5] = ex vivo human full-thickness skin; ref Franko et al., 2012; cited from earlier work

Row | Compound | Cholesterol (mice) | Glucose levels (mice) | Average serum concentration [1] [µg/mL] | Average urine concentration [1] [µg/mL] | other results
1 | O=S(=O)([O-])C(F)(F)C(F)(F)C(F)(F)C(F)(F)C(F)(F)C(F)(F)F.[K+] [K^+PFHxS, PFHxS potassium salt] | – | – | – | – | Liver weight (male rats): increase
2 | O=C(O)C(F)(F)C(F)(F)C(F)(F)F [PFBA, heptafluorobutyric acid] | increased | increased | – | – | –
3 | O=C(O)C(F)(F)C(F)(F)C(F)(F)C(F)(F)C(F)(F)C(F)(F)F [PFHpA, perfluoroheptanoic acid] | no effect | increased | 137 | 1200 | –
4 | O=C(O)C(F)(F)C(F)(F)C(F)(F)C(F)(F)C(F)(F)F [PFHxA, perfluorohexanoic acid] | no effect | increased | 4.8 | 1700 | –
5 | O=C(O)C(F)(F)C(F)(F)C(F)(F)C(F)(F)C(F)(F)C(F)(F)C(F)(F)F [PFOA, perfluorooctanoic acid] | – | – | – | – | Serum PFOA level ([2]; 0.5% PFOA): 152 ± 14 µg/mL; Serum PFOA level ([2]; 2% PFOA): 226 ± 14 µg/mL; SRBC IgM antibody titers (IgM response to SRBC; 15 days, 3.75–30 mg/kg via drinking water, ref Dewitt et al., 2008): reduce; IgM response to SRBC (IgM response to SRBC; dermal exposure, ref Shane et al., 2020): suppression; Total absorbable fraction [3]: 50%; Half-life in humans [4]: 2.1–10.1 years; Total absorbable fraction [5]: 69%
6 | O=C(O)C(F)(F)C(F)(F)C(F)(F)C(F)(F)F [PFPeA, perfluoropentanoic acid] | no effect | increased | – | – | –
